Measurements as given in patent publication US20250099626A1, “COMPOSITIONS AND METHODS FOR OXONOL DYES WITH NEAR INFRARED FLUORESCENCE” (Washington University, priority 2023, published 2025).

Assays:
[1] = DMSO; reference value of ICG standard; cited from earlier work
[2] = Solubility in water; type: physicochemical
[3] = Fluorescence lifetime (FLT) by time-correlated single photon counting; type: physicochemical
Procedure: Fluorescence lifetimes (FLT) were measured using time-correlated single photon counting (TCSPC implemented in Fluorolog-3, Horiba Jobin Yvon) with a 700 nm excitation source NanoLed® (impulse repetition rate 1 MHz) at 90° to the PMT R928P detector (Hamamatsu Photonics, Japan). […] We chose DMSO as the solvent for this study because it provides a similar environment to the biological systems. The detector was set to 740 nm with a 20 nm bandpass and data were collected until the peak signal reached 10,000 counts.

[4] = Relative fluorescence quantum yield using ICG as a standard; type: physicochemical; conditions: DMSO
Procedure: The absorption spectra of 4 and 15 were measured in both methanol (FIG. 4(A-B)) and DMSO (FIG. 5(A-D)). […] The broad emission bands allow flexibility in the choice of excitation and fluorescence wavelengths in analytical and biological assays. The relative fluorescence quantum yields of dyes 4 and 15 measured in DMSO using ICG as a standard show the values of 0.24 and 0.093 respectively compared to 0.12 for ICG.

[5] = Absorption and fluorescence emission spectra of the dyes in solvent; type: physicochemical; conditions: for Emission max, nm: excitation 700 nm
Procedure: Absorption spectra were recorded on a Beckman Coulter DU 640 UV-visible spectrophotometer (Brea, CA) and fluorescence spectra were recorded on a Fluorolog-3 spectrofluorometer (Horiba Jobin Yvon, Inc., Edison, NJ). All fluorescence measurements were conducted at room temperature and were recorded at excitation of 700 nm and emission scan from 715-900 nm.

[6] = system: SKBR3-GFP-Luc cells; test: Cellular fluorescence intensity imaging (NIR channel) of dye uptake; type: cell-based, human; conditions: 5 μM, 24 h incubation
Procedure: SKBR3-GFP-Luc cells (Dual labeled stable SK-BR-3 expressing green fluorescent protein (GFP) and luciferase, SL032, GeneCopoeia, Rockville, MD) were cultured in Dulbecco's Modified Eagle Medium (DMEM high glucose, Gibco) supplemented with 10% Fetal Bovine Serum (FBS), 1% penicillin/streptomycin and 5 μg/mL puromycin, and maintained in a humidified incubator at 37° C. with 5% CO2 atmosphere. For imaging experiments, these GFP labeled HER2+ human breast cancer cells were plated in Fluorobrite DMEM media (Gibco) supplemented with 10% FBS and 1% pen/strep in an 8-well chamber slide (6.0×10^4 cells in 200 μL media per well). […] All cells were washed with DPBS (300 μL×2) before mounting (Fluoromount-G, #1 coverslip) and imaging the slides with either a Zeiss AxioImager Z2 fluorescence microscope or FLIM.
Fluorescence intensity imaging was conducted on a Zeiss Axioimager.Z2 microscope equipped with a Hamamatsu ORCA Flash 4.0 V2 camera, X-Cite Xylis LED-based light source, and 20× Zeiss Plan-Apochromat air objective (0.8 N.A.) The imaging parameters included DAPI: excitation 335-383 nm/emission 420-470 nm/exposure time […] GFP: ex 450-490 nm/500-550 nm/46 ms exposure and NIR: ex 715-752 nm/760-855 nm/1 s exposure. […]

SMILES | Fluorescence quantum yield of the standard [1] | Solubility in water [2] | Fluorescent lifetime, ns ([3]; DMSO, 700 nm excitation, detector 740 nm) | Fluorescent lifetime, ns ([3]; Methanol) | Quantum yield (relative fluorescence quantum yield) [4] | Abs max, nm ([5]; DMSO) | Emission max, nm ([5]; DMSO) | Abs max, nm ([5]; Methanol) | Emission max, nm ([5]; Methanol) | Cellular internalization / uptake judged by signal intensity in NIR channel [6]
CC1(C)C(/C=C/C=C/C=C/C=C2\N(CCCCS(=O)(=O)O)c3ccc4ccccc4c3C2(C)C)=[N+](CCCCS(=O)(=O)[O-])c2ccc3ccccc3c21 [ICG, indocyanine green] | 0.12 |  |  |  |  |  |  |  |  | 
O=c1cc2/c(=C/C=C/C=C/c3c4c5c(cc(O)cc5oc3=O)OC(O)=C4)c(=O)oc3cc(O)cc(o1)c32 [Dye 4] |  | low solubility in water | 0.65 ns | 0.28 ns | 0.24 | 719 nm | 744 nm | 704 nm | 731 nm | essentially no appreciable uptake
